pKi: −log10 of the molar value.

Sequence of Bcl-2 protein (P10415 whole entry): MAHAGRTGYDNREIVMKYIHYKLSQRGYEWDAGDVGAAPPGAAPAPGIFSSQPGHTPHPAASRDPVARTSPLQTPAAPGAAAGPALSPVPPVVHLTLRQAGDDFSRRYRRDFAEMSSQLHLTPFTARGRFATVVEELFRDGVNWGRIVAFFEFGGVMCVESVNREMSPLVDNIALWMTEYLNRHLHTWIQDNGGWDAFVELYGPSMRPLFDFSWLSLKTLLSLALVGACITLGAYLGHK

The target of the assay is Bcl-2 protein (Homo sapiens (Human), UniProt P10415). Nature of the assay: Bcl-2 binding TR-FRET (Time-Resolved Fluorescence-Resonance-Energy-Transfer) assay. To be noted: inhibition constant for binding to Bcl-2 protein. An excerpt:
The smaller the Ki value, the greater is the binding affinity.
For orientation: TR-FRET usually uses a lanthanide donor and a delayed reading to cut background.
By pKi is commonly meant the negative decadic logarithm of the Ki, by convention in mol/L. Low readings indicate a high Ki, high ones a low Ki. Regarding `CC1(C)CCC(CN2CCN(c3ccc(C(=O)NS(=O)(=O)c4ccc(NC[C@H]5CCN(C6COC6)C5)c([N+](=O)[O-])c4)c(Oc4cnc5[nH]ccc5c4)c3)CC2)=C(c2ccc(Cl)cc2)C1` [Compound 195, 4-(4-{[2-(4-chlorophenyl)-4,4-dimethylcyclohex-1-en-1-yl]methyl}piperazin-1-yl)-N-{[3-nitro-4-({[(3R)-1-oxetan-3-ylpyrrolidin-3-yl]methyl}amino)phenyl]sulfonyl}-2-(1H-pyrrolo[2,3-b]pyridin-5-yloxy)benzamide], the negative-log Ki (pKi) is over 11.00.
To `CC1(C)CCC(CN2CCN(c3ccc(C(=O)NS(=O)(=O)c4ccc(N[C@@H]5CC[C@H](N6CCOCC6)C5)c([N+](=O)[O-])c4)c(Oc4cnc5[nH]ccc5c4)c3)CC2)=C(c2ccc(Cl)cc2)C1` [Compound 112, 4-(4-{[2-(4-chlorophenyl)-4,4-dimethylcyclohex-1-en-1-yl]methyl}piperazin-1-yl)-N-[(4-{[(1R,3S)-3-morpholin-4-ylcyclopentyl]amino}-3-nitrophenyl)sulfonyl]-2-(1H-pyrrolo[2,3-b]pyridin-5-yloxy)benzamide] belongs over 11.00.
The same measure for `CN(C)CC(=O)N1CCC(COc2ccc(S(=O)(=O)NC(=O)c3ccc(N4CCN(CC5=C(c6ccc(Cl)cc6)CC(C)(C)CC5)CC4)cc3Oc3cnc4[nH]ccc4c3)cc2Cl)CC1` [Compound 295, N-[(3-chloro-4-{[1-(N,N-dimethylglycyl)piperidin-4-yl]methoxy}phenyl)sulfonyl]-4-(4-{[2-(4-chlorophenyl)-4,4-dimethylcyclohex-1-en-1-yl]methyl}piperazin-1-yl)-2-(1H-pyrrolo[2,3-b]pyridin-5-yloxy)benzamide]: over 11.00.
The same measure for `CC1(C)CCC(CN2CCN(c3ccc(C(=O)NS(=O)(=O)c4ccc(OCC5CCC6(CC5)COC6)c([N+](=O)[O-])c4)c(Oc4cnc5[nH]ccc5c4)c3)CC2)=C(c2ccc(Cl)cc2)C1` [Compound 351, 4-(4-{[2-(4-chlorophenyl)-4,4-dimethylcyclohex-1-en-1-yl]methyl}piperazin-1-yl)-N-{[3-nitro-4-(2-oxaspiro[3.5]non-7-ylmethoxy)phenyl]sulfonyl}-2-(1H-pyrrolo[2,3-b]pyridin-5-yloxy)benzamide]: over 11.00; for `CC1(C)CCC(CN2CCN(c3ccc(C(=O)NS(=O)(=O)c4ccc(OCC5(F)CCN(C6COC6)CC5)c([N+](=O)[O-])c4)c(Oc4cnc5[nH]ccc5c4)c3)CC2)=C(c2ccc(Cl)cc2)C1` [Compound 167, 4-(4-{[2-(4-chlorophenyl)-4,4-dimethylcyclohex-1-en-1-yl]methyl}piperazin-1-yl)-N-({4-[(4-fluoro-1-oxetan-3-ylpiperidin-4-yl)methoxy]-3-nitrophenyl}sulfonyl)-2-(1H-pyrrolo[2,3-b]pyridin-5-yloxy)benzamide]: over 11.00; for `CC1(C)CCC(CN2CCN(c3ccc(C(=O)NS(=O)(=O)c4ccc(NCC5COCCN5C5CCOC5)c([N+](=O)[O-])c4)c(Oc4cnc5[nH]ccc5c4)c3)CC2)=C(c2ccc(Cl)cc2)C1` (stereo not drawn) [Compound 171, 4-(4-{[2-(4-chlorophenyl)-4,4-dimethylcyclohex-1-en-1-yl]methyl}piperazin-1-yl)-N-[(3-nitro-4-{[(4-tetrahydrofuran-3-ylmorpholin-3-yl)methyl]amino}phenyl)sulfonyl]-2-(1H-pyrrolo[2,3-b]pyridin-5-yloxy)benzamide]: over 11.00.
With `CC1(C)CCC(CN2CCN(c3ccc(C(=O)NS(=O)(=O)c4ccc(NCC5CN(S(C)(=O)=O)CCO5)c([N+](=O)[O-])c4)c(Oc4cnc5[nH]ccc5c4)c3)CC2)=C(c2ccc(Cl)cc2)C1` (stereo not drawn) [Compound 319, 4-(4-{[2-(4-chlorophenyl)-4,4-dimethylcyclohex-1-en-1-yl]methyl}piperazin-1-yl)-N-{[4-({[4-(methylsulfonyl)morpholin-2-yl]methyl}amino)-3-nitrophenyl]sulfonyl}-2-(1H-pyrrolo[2,3-b]pyridin-5-yloxy)benzamide], the pKi was over 11.00.
To `COCCN1CCOC(CNc2ccc(S(=O)(=O)NC(=O)c3ccc(N4CCN(CC5=C(c6ccc(Cl)cc6)CC(C)(C)CC5)CC4)cc3Oc3cnc4[nH]ccc4c3)cc2[N+](=O)[O-])C1` (stereo not drawn) [Compound 135, 4-(4-{[2-(4-chlorophenyl)-4,4-dimethylcyclohex-1-en-1-yl]methyl}piperazin-1-yl)-N-{[4-({[4-(2-methoxyethyl)morpholin-2-yl]methyl}amino)-3-nitrophenyl]sulfonyl}-2-(1H-pyrrolo[2,3-b]pyridin-5-yloxy)benzamide] belongs over 11.00; to `CC1(C)CCC(CN2CCN(c3ccc(C(=O)NS(=O)(=O)c4ccc(N[C@@H]5CCN(CC(F)F)C5)c([N+](=O)[O-])c4)c(Oc4cnc5[nH]ccc5c4)c3)CC2)=C(c2ccc(Cl)cc2)C1` [Compound 180, 4-(4-{[2-(4-chlorophenyl)-4,4-dimethylcyclohex-1-en-1-yl]methyl}piperazin-1-yl)-N-[(4-{[(3R)-1-(2,2-difluoroethyl)pyrrolidin-3-yl]amino}-3-nitrophenyl)sulfonyl]-2-(1H-pyrrolo[2,3-b]pyridin-5-yloxy)benzamide], over 11.00; to `CC1(C)CCC(CN2CCN(c3ccc(C(=O)NS(=O)(=O)c4ccc(NCCCN5CCOCC5)c([N+](=O)[O-])c4)c(Oc4cnc5[nH]ccc5c4)c3)CC2)=C(c2ccc(Cl)cc2)C1` [Compound 55, 4-(4-{[2-(4-chlorophenyl)-4,4-dimethylcyclohex-1-en-1-yl]methyl}piperazin-1-yl)-N-({4-[(3-morpholin-4-ylpropyl)amino]-3-nitrophenyl}sulfonyl)-2-(1H-pyrrolo[2,3-b]pyridin-5-yloxy)benzamide], over 11.00.
`CC1(C)CCC(CN2CCN(c3ccc(C(=O)NS(=O)(=O)c4cnc(OC[C@]5(F)CC[C@@H](O)CC5)c(Cl)c4)c(Oc4cnc5[nH]ccc5c4)c3)CC2)=C(c2ccc(Cl)cc2)C1` [Compound 350, N-({5-chloro-6-[(cis-1-fluoro-4-hydroxycyclohexyl)methoxy]pyridin-3-yl}sulfonyl)-4-(4-{[2-(4-chlorophenyl)-4,4-dimethylcyclohex-1-en-1-yl]methyl}piperazin-1-yl)-2-(1H-pyrrolo[2,3-b]pyridin-5-yloxy)benzamide] showed a negative logarithm of the Ki (pKi) of over 11.00.
As for `CC1(C)CCC(CN2CCN(c3ccc(C(=O)NS(=O)(=O)c4cnc(OCC5CCc6nccn6C5)c(Cl)c4)c(Oc4cnc5[nH]ccc5c4)c3)CC2)=C(c2ccc(Cl)cc2)C1` (stereo not drawn) [Compound 342, 4-(4-{[2-(4-chlorophenyl)-4,4-dimethylcyclohex-1-en-1-yl]methyl}piperazin-1-yl)-N-{[5-chloro-6-(5,6,7,8-tetrahydroimidazo[1,2-a]pyridin-6-ylmethoxy)pyridin-3-yl]sulfonyl}-2-(1H-pyrrolo[2,3-b]pyridin-5-yloxy)benzamide], the pKi was over 11.00.
The same measure for `CC(=O)N1CCCC(CNc2ccc(S(=O)(=O)NC(=O)c3ccc(N4CCN(CC5=C(c6ccc(Cl)cc6)CC(C)(C)CC5)CC4)cc3Oc3cnc4[nH]ccc4c3)cc2[N+](=O)[O-])C1` (stereo not drawn) [Compound 148, N-[(4-{[(1-acetylpiperidin-3-yl)methyl]amino}-3-nitrophenyl)sulfonyl]-4-(4-{[2-(4-chlorophenyl)-4,4-dimethylcyclohex-1-en-1-yl]methyl}piperazin-1-yl)-2-(1H-pyrrolo[2,3-b]pyridin-5-yloxy)benzamide]: over 11.00.
`CC1(C)CCC(CN2CCN(c3ccc(C(=O)NS(=O)(=O)c4ccc(N[C@@H]5CCN(CCF)C5)c([N+](=O)[O-])c4)c(Oc4cnc5[nH]ccc5c4)c3)CC2)=C(c2ccc(Cl)cc2)C1` [Compound 183, 4-(4-{[2-(4-chlorophenyl)-4,4-dimethylcyclohex-1-en-1-yl]methyl}piperazin-1-yl)-N-[(4-{[(3R)-1-(2-fluoroethyl)pyrrolidin-3-yl]amino}-3-nitrophenyl)sulfonyl]-2-(1H-pyrrolo[2,b]pyridin-5-yloxy)benzamide] had a pKi of over 11.00.
The same measure for `CN(C)CCCOc1ccc(CNc2ccc(S(=O)(=O)NC(=O)c3ccc(N4CCN(CC5=C(c6ccc(Cl)cc6)CC(C)(C)CC5)CC4)cc3Oc3cnc4[nH]ccc4c3)cc2[N+](=O)[O-])cc1` [Compound 197, 4-(4-{[2-(4-chlorophenyl)-4,4-dimethylcyclohex-1-en-1-yl]methyl}piperazin-1-yl)-N-{[4-({4-[3-(dimethylamino)propoxy]benzyl}amino)-3-nitrophenyl]sulfonyl}-2-(1H-pyrrolo[2,3-b]pyridin-5-yloxy)benzamide]: over 11.00; for `CN1CCC(Nc2ccc(S(=O)(=O)NC(=O)c3ccc(N4CCN(CC5=C(c6ccc(Cl)cc6)CC(C)(C)OC5)CC4)cc3Oc3cnc4[nH]ccc4c3)cc2S(=O)(=O)C(F)(F)F)CC1` [Compound 45, 4-(4-{[4-(4-chlorophenyl)-6,6-dimethyl-5,6-dihydro-2H-pyran-3-yl]methyl}piperazin-1-yl)-N-({4-[(1-methylpiperidin-4-yl)amino]-3-[(trifluoromethyl)sulfonyl]phenyl}sulfonyl)-2-(1H-pyrrolo[2,3-b]pyridin-5-yloxy)benzamide]: over 11.00.
The same measure for `CN(C)CC(=O)N1CCC(F)(COc2ncc(S(=O)(=O)NC(=O)c3ccc(N4CCN(CC5=C(c6ccc(Cl)cc6)CC(C)(C)CC5)CC4)cc3Oc3cnc4[nH]ccc4c3)cc2Cl)CC1` [Compound 270, N-[(5-chloro-6-{[1-(N,N-dimethylglycyl)-4-fluoropiperidin-4-yl]methoxy}pyridin-3-yl)sulfonyl]-4-(4-{[2-(4-chlorophenyl)-4,4-dimethylcyclohex-1-en-1-yl]methyl}piperazin-1-yl)-2-(1H-pyrrolo[2,3-b]pyridin-5-yloxy)benzamide]: over 11.00; for `COCCNc1ccc(S(=O)(=O)NC(=O)c2ccc(N3CCN(CC4=C(c5ccc(Cl)cc5)CC(C)(C)CC4)CC3)cc2Oc2cnc3[nH]ccc3c2)cc1[N+](=O)[O-]` [Compound 10, 4-(4-{[2-(4-chlorophenyl)-4,4-dimethylcyclohex-1-en-1-yl]methyl}piperazin-1-yl)-N-({4-[(2-methoxyethyl)amino]-3-nitrophenyl}sulfonyl)-2-(1H-pyrrolo[2,3-b]pyridin-5-yloxy)benzamide]: over 11.00.

Values taken from US10213433B2 (AbbVie Inc., priority 2010, dated 2019).
